Laboratory results taken from paper PMC10158552 (Biomedicine & Pharmacotherapy, 2023).

System: SARS-CoV-2 Delta
Assay type: cell-based
Settings: 346 µM compounds, 480 µg/ml antibodies

Substance | viral replication of SARS-CoV-2, basal treatment
Casirivimab: monoclonal Ab administered intravenously in patients, used as positive control (Roche) | show an antiviral effect
Imdevimab: monoclonal Ab administered intravenously in patients, used as positive control (Roche) | show an antiviral effect
